# In ChEMBL document CHEMBL4507285, “Data for DCP probe MRL-SYKi” (2021):
# Assays:
# [1] = target: AP2-associated protein kinase 1 (Homo sapiens) (UniProt Q2M2I8); settings: Compound concentration 100.0 nM
# [2] = test system: Tyrosine-protein kinase ABL1 (Homo sapiens), P00519 [F317I]; settings: Compound concentration 100.0 nM
# [3] = test system: Tyrosine-protein kinase ABL1 (Homo sapiens), P00519 [M351T]; settings: Compound concentration 100.0 nM
# [4] = target: Tyrosine-protein kinase ABL1 (Homo sapiens) (UniProt P00519); settings: Compound concentration 100.0 nM
# [5] = target: Atypical kinase COQ8A, mitochondrial (Homo sapiens) (UniProt Q8NI60); settings: Compound concentration 100.0 nM
# [6] = target: 5'-AMP-activated protein kinase catalytic subunit alpha-1 (Homo sapiens) (UniProt Q13131); settings: Compound concentration 100.0 nM
# [7] = target: Ankyrin repeat and protein kinase domain-containing protein 1 (Homo sapiens) (UniProt Q8NFD2); settings: Compound concentration 100.0 nM
# [8] = target: Mitogen-activated protein kinase kinase kinase 6 (Homo sapiens) (UniProt O95382); settings: Compound concentration 100.0 nM
# [9] = target: Aurora kinase B (Homo sapiens) (UniProt Q96GD4); settings: Compound concentration 100.0 nM
# [10] = target: Tyrosine-protein kinase Blk (Homo sapiens) (UniProt P51451); settings: Compound concentration 100.0 nM
# [11] = target: Bone morphogenetic protein receptor type-1B (Homo sapiens) (UniProt O00238); settings: Compound concentration 100.0 nM
# [12] = target: Serine/threonine-protein kinase BRSK1 (Homo sapiens) (UniProt Q8TDC3); settings: Compound concentration 100.0 nM
# [13] = target: Calcium/calmodulin-dependent protein kinase type 1 (Homo sapiens) (UniProt Q14012); settings: Compound concentration 100.0 nM
# [14] = target: Calcium/calmodulin-dependent protein kinase kinase 2 (Homo sapiens) (UniProt Q96RR4); settings: Compound concentration 100.0 nM
# [15] = target: Cyclin-dependent kinase 11A (Homo sapiens) (UniProt Q9UQ88); settings: Compound concentration 100.0 nM
# [16] = target: Cyclin-dependent kinase 4 (Homo sapiens) (UniProt P11802); settings: Compound concentration 100.0 nM
# Sequence of Cyclin-dependent kinase 4 (Homo sapiens) (P11802 whole entry): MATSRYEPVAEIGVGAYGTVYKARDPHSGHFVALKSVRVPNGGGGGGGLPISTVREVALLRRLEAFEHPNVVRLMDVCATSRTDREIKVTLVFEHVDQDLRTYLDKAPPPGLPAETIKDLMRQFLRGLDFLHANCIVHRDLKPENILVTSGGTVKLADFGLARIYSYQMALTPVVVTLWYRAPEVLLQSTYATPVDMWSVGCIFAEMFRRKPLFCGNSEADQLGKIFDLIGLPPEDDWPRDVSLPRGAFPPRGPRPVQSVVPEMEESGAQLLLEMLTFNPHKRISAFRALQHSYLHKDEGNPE
# [17] = target: Cyclin-dependent kinase-like 3 (Homo sapiens) (UniProt Q8IVW4); settings: Compound concentration 100.0 nM
# Sequence of Cyclin-dependent kinase-like 3 (Homo sapiens) (Q8IVW4 whole entry, looked up, canonical isoform): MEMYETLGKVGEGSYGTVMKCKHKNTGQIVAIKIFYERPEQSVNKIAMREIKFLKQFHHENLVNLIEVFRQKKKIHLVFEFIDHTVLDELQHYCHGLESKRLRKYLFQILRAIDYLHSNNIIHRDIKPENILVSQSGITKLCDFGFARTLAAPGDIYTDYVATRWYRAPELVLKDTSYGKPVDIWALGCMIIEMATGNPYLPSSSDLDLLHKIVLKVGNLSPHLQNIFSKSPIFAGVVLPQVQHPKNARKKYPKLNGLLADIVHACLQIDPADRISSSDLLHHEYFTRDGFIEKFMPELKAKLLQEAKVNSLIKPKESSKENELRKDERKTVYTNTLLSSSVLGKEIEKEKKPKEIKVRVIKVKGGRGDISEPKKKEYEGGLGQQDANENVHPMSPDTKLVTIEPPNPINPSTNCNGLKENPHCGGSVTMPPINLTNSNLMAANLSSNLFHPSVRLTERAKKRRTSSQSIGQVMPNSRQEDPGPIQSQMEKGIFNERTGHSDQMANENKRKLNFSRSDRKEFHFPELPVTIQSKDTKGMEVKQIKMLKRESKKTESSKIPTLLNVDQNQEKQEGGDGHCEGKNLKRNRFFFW
# [18] = target: Casein kinase I isoform alpha (Homo sapiens) (UniProt P48729); settings: Compound concentration 100.0 nM
# Sequence of Casein kinase I isoform alpha (Homo sapiens) (P48729 2-337 limits assumed): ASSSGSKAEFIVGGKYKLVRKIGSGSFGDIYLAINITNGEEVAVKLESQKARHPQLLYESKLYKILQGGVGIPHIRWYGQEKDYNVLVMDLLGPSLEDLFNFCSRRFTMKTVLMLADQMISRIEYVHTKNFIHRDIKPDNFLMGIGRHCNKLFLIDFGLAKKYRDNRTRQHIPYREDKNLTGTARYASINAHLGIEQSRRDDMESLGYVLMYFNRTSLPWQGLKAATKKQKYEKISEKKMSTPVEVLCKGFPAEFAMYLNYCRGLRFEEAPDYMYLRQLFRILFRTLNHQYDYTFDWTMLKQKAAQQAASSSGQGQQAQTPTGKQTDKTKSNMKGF
# [19] = target: Casein kinase II subunit alpha (Homo sapiens) (UniProt P68400); settings: Compound concentration 100.0 nM
# [20] = target: Myotonin-protein kinase (Homo sapiens) (UniProt Q09013); settings: Compound concentration 100.0 nM
# Sequence of Myotonin-protein kinase (Homo sapiens) (Q09013 whole entry): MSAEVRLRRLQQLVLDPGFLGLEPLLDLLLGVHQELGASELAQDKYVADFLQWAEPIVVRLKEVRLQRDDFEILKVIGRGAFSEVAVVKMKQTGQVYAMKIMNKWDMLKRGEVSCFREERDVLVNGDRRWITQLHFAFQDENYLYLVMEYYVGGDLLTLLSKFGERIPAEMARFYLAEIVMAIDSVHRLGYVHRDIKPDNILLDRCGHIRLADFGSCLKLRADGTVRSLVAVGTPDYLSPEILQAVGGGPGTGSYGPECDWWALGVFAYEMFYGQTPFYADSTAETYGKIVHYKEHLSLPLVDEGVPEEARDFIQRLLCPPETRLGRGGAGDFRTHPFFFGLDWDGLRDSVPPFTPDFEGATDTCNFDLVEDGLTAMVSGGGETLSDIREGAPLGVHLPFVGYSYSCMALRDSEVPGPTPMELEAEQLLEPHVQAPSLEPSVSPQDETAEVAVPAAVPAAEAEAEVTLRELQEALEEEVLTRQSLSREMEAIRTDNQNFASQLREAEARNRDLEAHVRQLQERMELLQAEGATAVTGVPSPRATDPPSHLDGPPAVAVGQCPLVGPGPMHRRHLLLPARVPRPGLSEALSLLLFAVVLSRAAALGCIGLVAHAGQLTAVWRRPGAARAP
# [21] = test system: Epidermal growth factor receptor (Homo sapiens), P00533 [L861Q]; settings: Compound concentration 100.0 nM
# [22] = target: Ephrin type-A receptor 6 (Homo sapiens) (UniProt Q9UF33); settings: Compound concentration 100.0 nM
# [23] = target: Mitogen-activated protein kinase 7 (Homo sapiens) (UniProt Q13164); settings: Compound concentration 100.0 nM
# Sequence of Mitogen-activated protein kinase 7 (Homo sapiens) (Q13164 2-816 limits assumed): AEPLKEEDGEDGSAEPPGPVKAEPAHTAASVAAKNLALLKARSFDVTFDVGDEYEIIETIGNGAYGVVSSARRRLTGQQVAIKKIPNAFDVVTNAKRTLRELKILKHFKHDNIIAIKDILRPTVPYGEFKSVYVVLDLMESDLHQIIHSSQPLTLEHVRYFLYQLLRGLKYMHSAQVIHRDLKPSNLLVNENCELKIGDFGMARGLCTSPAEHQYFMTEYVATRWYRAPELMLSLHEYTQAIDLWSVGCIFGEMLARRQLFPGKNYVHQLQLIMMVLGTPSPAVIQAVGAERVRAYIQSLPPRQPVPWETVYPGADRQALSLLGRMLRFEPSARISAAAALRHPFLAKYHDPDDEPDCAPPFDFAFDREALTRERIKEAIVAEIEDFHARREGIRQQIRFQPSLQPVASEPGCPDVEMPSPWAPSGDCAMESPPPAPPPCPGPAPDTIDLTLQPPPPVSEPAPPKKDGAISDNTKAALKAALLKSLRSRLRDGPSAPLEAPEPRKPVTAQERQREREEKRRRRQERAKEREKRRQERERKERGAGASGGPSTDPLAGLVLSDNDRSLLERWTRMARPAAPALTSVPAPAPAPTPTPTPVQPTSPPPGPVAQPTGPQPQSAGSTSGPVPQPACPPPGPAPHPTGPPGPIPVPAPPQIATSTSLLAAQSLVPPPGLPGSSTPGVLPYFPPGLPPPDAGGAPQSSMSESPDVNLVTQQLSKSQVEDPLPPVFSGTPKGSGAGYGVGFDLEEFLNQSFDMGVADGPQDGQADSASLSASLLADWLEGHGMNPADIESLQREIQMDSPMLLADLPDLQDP
# [24] = target: Serine/threonine-protein kinase haspin (Homo sapiens) (UniProt Q8TF76); settings: Compound concentration 100.0 nM
# [25] = target: Insulin receptor (Homo sapiens) (UniProt P06213); settings: Compound concentration 100.0 nM
# [26] = test system: Mast/stem cell growth factor receptor Kit (Homo sapiens), P10721 [V559D,V654A]; settings: Compound concentration 100.0 nM
# Sequence of Mast/stem cell growth factor receptor Kit (Homo sapiens), P10721 [V559D,V654A] (P10721 whole entry V559D/V654A, the tested form may be a part): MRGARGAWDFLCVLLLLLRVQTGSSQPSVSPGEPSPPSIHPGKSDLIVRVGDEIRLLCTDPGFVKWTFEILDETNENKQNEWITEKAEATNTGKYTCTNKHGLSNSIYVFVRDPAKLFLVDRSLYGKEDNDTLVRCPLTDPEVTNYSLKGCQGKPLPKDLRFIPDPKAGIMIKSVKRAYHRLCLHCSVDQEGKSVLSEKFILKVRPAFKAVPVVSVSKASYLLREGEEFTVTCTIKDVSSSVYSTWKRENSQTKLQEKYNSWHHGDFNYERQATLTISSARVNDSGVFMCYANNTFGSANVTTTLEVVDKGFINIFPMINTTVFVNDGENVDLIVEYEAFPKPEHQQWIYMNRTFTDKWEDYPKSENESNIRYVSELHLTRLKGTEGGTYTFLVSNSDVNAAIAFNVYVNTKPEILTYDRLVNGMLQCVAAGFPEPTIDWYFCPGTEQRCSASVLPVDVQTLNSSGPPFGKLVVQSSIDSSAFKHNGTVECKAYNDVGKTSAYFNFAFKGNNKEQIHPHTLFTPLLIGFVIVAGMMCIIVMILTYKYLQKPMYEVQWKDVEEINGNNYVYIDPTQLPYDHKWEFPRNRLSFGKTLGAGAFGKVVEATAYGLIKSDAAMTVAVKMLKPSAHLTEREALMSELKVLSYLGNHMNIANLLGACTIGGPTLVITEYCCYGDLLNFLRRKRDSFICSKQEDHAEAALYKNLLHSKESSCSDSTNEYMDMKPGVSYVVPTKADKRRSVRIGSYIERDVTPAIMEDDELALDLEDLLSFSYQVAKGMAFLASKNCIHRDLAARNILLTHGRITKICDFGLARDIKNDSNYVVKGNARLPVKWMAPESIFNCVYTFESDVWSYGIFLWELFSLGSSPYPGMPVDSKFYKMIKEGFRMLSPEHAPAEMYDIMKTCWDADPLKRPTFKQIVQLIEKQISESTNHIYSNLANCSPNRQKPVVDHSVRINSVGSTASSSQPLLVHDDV
# [27] = target: LIM domain kinase 2 (Homo sapiens) (UniProt P53671); settings: Compound concentration 100.0 nM
# Sequence of LIM domain kinase 2 (Homo sapiens) (P53671 whole entry, looked up, the tested form may be a part): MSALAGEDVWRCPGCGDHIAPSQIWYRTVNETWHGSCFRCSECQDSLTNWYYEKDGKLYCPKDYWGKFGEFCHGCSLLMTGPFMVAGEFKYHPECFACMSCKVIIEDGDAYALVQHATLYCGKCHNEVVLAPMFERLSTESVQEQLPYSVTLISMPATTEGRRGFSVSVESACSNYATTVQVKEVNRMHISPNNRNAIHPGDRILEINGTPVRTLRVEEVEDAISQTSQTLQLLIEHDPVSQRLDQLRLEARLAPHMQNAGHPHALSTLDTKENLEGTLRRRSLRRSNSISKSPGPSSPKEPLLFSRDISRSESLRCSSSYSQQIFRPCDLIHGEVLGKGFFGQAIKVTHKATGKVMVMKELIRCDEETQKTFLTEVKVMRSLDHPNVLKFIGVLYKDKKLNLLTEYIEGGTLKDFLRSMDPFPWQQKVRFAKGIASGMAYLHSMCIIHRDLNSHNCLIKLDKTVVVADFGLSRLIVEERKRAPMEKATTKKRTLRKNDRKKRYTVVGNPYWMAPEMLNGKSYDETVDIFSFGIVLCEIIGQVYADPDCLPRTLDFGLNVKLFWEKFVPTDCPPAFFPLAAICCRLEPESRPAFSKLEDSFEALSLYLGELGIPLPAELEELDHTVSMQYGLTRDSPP
# [28] = target: Mitogen-activated protein kinase kinase kinase 3 (Homo sapiens) (UniProt Q99759); settings: Compound concentration 100.0 nM
# [29] = target: Dual specificity mitogen-activated protein kinase kinase 1 (Homo sapiens) (UniProt Q02750); settings: Compound concentration 100.0 nM
# [30] = target: Myosin-IIIa (Homo sapiens) (UniProt Q8NEV4); settings: Compound concentration 100.0 nM
# [31] = target: Phosphatidylinositol 4-phosphate 3-kinase C2 domain-containing subunit beta (Homo sapiens) (UniProt O00750); settings: Compound concentration 100.0 nM
# [32] = target: Phosphatidylinositol 4,5-bisphosphate 3-kinase catalytic subunit delta isoform (Homo sapiens) (UniProt O00329); settings: Compound concentration 100.0 nM
# [33] = target: Serine/threonine-protein kinase D1 (Homo sapiens) (UniProt Q15139); settings: Compound concentration 100.0 nM
# [34] = target: cGMP-dependent protein kinase 2 (Homo sapiens) (UniProt Q13237); settings: Compound concentration 100.0 nM
# Sequence of cGMP-dependent protein kinase 2 (Homo sapiens) (Q13237 whole entry): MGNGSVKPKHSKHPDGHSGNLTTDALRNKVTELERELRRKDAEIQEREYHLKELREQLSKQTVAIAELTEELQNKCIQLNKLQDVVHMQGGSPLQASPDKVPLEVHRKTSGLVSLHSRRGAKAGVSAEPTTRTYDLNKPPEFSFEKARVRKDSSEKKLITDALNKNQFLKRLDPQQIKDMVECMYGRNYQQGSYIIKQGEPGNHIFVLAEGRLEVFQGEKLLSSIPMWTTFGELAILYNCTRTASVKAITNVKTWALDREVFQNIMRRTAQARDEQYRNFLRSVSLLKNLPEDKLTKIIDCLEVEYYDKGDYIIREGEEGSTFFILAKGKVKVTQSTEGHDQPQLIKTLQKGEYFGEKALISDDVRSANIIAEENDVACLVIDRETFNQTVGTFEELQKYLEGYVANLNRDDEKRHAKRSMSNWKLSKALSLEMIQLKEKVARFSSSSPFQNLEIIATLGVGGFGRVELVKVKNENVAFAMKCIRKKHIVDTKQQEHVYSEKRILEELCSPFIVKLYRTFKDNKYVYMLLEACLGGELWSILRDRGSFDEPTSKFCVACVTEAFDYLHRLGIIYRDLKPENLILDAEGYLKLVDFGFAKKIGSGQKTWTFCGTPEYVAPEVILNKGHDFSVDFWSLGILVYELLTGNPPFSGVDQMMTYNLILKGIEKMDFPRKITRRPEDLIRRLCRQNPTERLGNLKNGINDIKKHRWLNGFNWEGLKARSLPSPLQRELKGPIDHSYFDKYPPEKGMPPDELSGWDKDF
# [35] = target: Receptor-interacting serine/threonine-protein kinase 2 (Homo sapiens) (UniProt O43353); settings: Compound concentration 100.0 nM
# [36] = target: Rho-associated protein kinase 2 (Homo sapiens) (UniProt O75116); settings: Compound concentration 100.0 nM
# [37] = target: Proto-oncogene tyrosine-protein kinase ROS (Homo sapiens) (UniProt P08922); settings: Compound concentration 100.0 nM
# [38] = target: Serine/threonine-protein kinase SIK2 (Homo sapiens) (UniProt Q9H0K1); settings: Compound concentration 100.0 nM
# [39] = target: SRSF protein kinase 2 (Homo sapiens) (UniProt P78362); settings: Compound concentration 100.0 nM
# [40] = target: STE20/SPS1-related proline-alanine-rich protein kinase (Homo sapiens) (UniProt Q9UEW8); settings: Compound concentration 100.0 nM
# [41] = target: TRAF2 and NCK-interacting protein kinase (Homo sapiens) (UniProt Q9UKE5); settings: Compound concentration 100.0 nM
# [42] = target: Vascular endothelial growth factor receptor 2 (Homo sapiens) (UniProt P35968); settings: Compound concentration 100.0 nM
# [43] = target: D(4) dopamine receptor (Homo sapiens) (UniProt P21917); settings: Compound concentration 10.0 uM
# [44] = target: D(1B) dopamine receptor (Homo sapiens) (UniProt P21918); settings: Compound concentration 10.0 uM
# [45] = target: Histamine H3 receptor (Homo sapiens) (UniProt Q9Y5N1); settings: Compound concentration 10.0 uM
# [46] = target: Beta-1 adrenergic receptor (Homo sapiens) (UniProt P08588); settings: Compound concentration 10.0 uM
smiles,measurement,setting,value
Cc1ccc(-c2cnc([C@@]3(O)CC[C@H](C(=O)O)C(C)(C)C3)s2)cc1Nc1cccc(C(F)(F)F)n1 [MRL-SYKi-NC],residual activity,[1],85.7%
same,residual activity,[2],80.1%
same,residual activity,[3],87%
same,residual activity,[4],100%
same,residual activity,[5],100%
same,residual activity,[6],77.6%
same,residual activity,[7],93.5%
same,residual activity,[8],100%
same,residual activity,[9],93.1%
same,residual activity,[10],100%
same,residual activity,[11],92.3%
same,residual activity,[12],100%
same,residual activity,[13],75.3%
same,residual activity,[14],91.5%
same,residual activity,[15],100%
same,residual activity,[16],100%
same,residual activity,[17],100%
same,residual activity,[18],94%
same,residual activity,[19],100%
same,residual activity,[20],93.7%
same,residual activity,[21],98.5%
same,residual activity,[22],100%
same,residual activity,[23],100%
same,residual activity,[24],47%
same,residual activity,[25],78.7%
same,residual activity,[26],100%
same,residual activity,[27],100%
same,residual activity,[28],82.5%
same,residual activity,[29],95%
same,residual activity,[30],70.1%
same,residual activity,[31],69.2%
same,residual activity,[32],98.8%
same,residual activity,[33],90.1%
same,residual activity,[34],69.9%
same,residual activity,[35],96.8%
same,residual activity,[36],85.3%
same,residual activity,[37],91.5%
same,residual activity,[38],88.9%
same,residual activity,[39],91.9%
same,residual activity,[40],100%
same,residual activity,[41],75.8%
same,residual activity,[42],100%
same,inhibition,[43],-9.54%
same,inhibition,[44],18.6%
same,inhibition,[45],46.4%
same,inhibition,[46],10.3%
Cc1cc(Nc2nccc(C)n2)cc(-c2cnc([C@@]3(O)CC[C@H](C(=O)O)C(C)(C)C3)s2)c1 [MRL-SYKi],residual activity,[1],100%
same,residual activity,[2],100%
same,residual activity,[3],78.3%
same,residual activity,[4],63.3%
same,residual activity,[5],100%
same,residual activity,[6],100%
same,residual activity,[7],100%
same,residual activity,[8],69.5%
same,residual activity,[9],89%
same,residual activity,[10],74.6%
same,residual activity,[11],100%
same,residual activity,[12],100%
same,residual activity,[13],99.3%
same,residual activity,[14],69.7%
same,residual activity,[15],86.1%
same,residual activity,[16],76.9%
same,residual activity,[17],100%
same,residual activity,[18],61.6%
same,residual activity,[19],100%
same,residual activity,[20],99.8%
same,residual activity,[21],100%
same,residual activity,[22],95.8%
same,residual activity,[23],83.6%
same,residual activity,[24],90.8%
same,residual activity,[25],100%
same,residual activity,[26],100%
same,residual activity,[27],87.2%
same,residual activity,[28],100%
same,residual activity,[29],100%
same,residual activity,[30],100%
same,residual activity,[31],100%
same,residual activity,[32],100%
same,residual activity,[33],100%
same,residual activity,[34],100%
same,residual activity,[35],83.8%
same,residual activity,[36],85.9%
same,residual activity,[37],97%
same,residual activity,[38],95.7%
same,residual activity,[39],100%
same,residual activity,[40],81.8%
same,residual activity,[41],100%
same,residual activity,[42],100%
same,inhibition,[43],-6.05%
same,inhibition,[44],8.85%
same,inhibition,[45],50.4%
same,inhibition,[46],-9.08%
